8 compounds from BindingDB's records for doi:10.1016/j.bmcl.2008.07.045 (Korea Research Institute of Bioscience and Biotechnology, 2008) can be followed below.

Bounds are passed on as bounds.

Assay [1] concerns the target Intercellular adhesion molecule 1 (Homo sapiens, UniProt P05362). Put plainly: Inhibition of sICAM1/LFA1 interaction-mediated human THP1 cell adhesion after 1 hr by ELISA.
Assay [2] can be described thus: Inhibition of sICAM1/LFA1 interaction-mediated human THP1 cell adhesion after 1 hr by ELISA. In general terms: In an ELISA, binding on a coated surface is turned into a signal by an enzyme label.

Intercellular adhesion molecule 1, sequence (P05362 whole entry): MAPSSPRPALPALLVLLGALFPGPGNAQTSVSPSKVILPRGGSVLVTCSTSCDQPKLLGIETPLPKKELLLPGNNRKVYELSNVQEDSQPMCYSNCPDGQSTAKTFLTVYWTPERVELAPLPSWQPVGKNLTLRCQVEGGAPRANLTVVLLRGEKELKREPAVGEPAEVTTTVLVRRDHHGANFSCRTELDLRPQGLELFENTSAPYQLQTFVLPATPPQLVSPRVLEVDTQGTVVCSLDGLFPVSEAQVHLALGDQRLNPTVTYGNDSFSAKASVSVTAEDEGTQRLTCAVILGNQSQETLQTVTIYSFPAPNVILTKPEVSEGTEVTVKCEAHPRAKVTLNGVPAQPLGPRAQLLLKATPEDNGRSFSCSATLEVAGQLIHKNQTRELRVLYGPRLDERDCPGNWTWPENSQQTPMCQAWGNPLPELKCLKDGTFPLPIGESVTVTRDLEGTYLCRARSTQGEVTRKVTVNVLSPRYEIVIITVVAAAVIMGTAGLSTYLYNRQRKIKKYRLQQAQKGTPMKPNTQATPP

Consider `O=C(/C=C/C=C\CC/C=C/c1ccc2c(c1)OCO2)N1CCCCC1`, for which the midpoint of inhibition in assay [1], the IC50, lay at 32.4 µM.

In assay [1], `O=C(CCCCCC/C=C/c1ccc2c(c1)OCO2)N1CCCCC1` [PIPERROLEIN B] came in with an IC50 of 37.8 µM.

On to `O=C(/C=C/C=C/CC/C=C/c1ccc2c(c1)OCO2)N1CCCCC1` [Dehydropipernoline], for which, in assay [2], inhibition was half-maximal at 17.6 µM (IC50).

Turning to `O=C(/C=C/CCCC/C=C/c1ccc2c(c1)OCO2)N1CCCCC1` [Pipernonaline], in assay [2], inhibition was half-maximal at 25.7 µM (IC50). The IC50 values of the last two compounds are within 1.5-fold of each other.

As for `CCCCC/C=C/C=C/C(=O)NCC(C)C` [CHEBI:69686], in assay [1], the IC50 was 62.6 µM.

`CC(C)CNC(=O)/C=C/CCCCCC/C=C/c1ccc2c(c1)OCO2` [PIPERCHABAMIDE D] gave an IC50 in assay [2] of 83.9 µM.

In the case of `CC(C)CNC(=O)/C=C/CCCC/C=C/c1ccc2c(c1)OCO2` [RETROFRACTAMIDE C], the IC50 in assay [2] is > 151 µM.

For the compound `CC(C)CNC(=O)/C=C/C=C/CCCCCC/C=C/c1ccc2c(c1)OCO2` [Guineensine], the half-inhibitory concentration (IC50) in assay [2] was > 130 µM.

Usually IC50 stands for the concentration at which inhibition is half-maximal. Lower therefore signals inhibition by little substance.
